Read-outs that look alike come from different tables or passages of the source.
Key:
[1] = Table I, no reference given; cited from earlier work
KCNR cells = assay: alamarBlue viability assay; type: cell-based; conditions: 24 h incubation, read-out: IC50 (cell viability)
Procedure: Efficacy of YM155 loaded liposomes (targeted and non-targeted control liposomes) was studied on KCNR by alamarBlue viability assay (Thermo Fischer Scientific), according to the supplier’s instruction. KCNR cells were seeded at 20 × 10^3 cells/well in 96 well Greiner polystyrene plates (Sigma Aldrich) in complete DMEM medium and allowed to adhere overnight. The medium was replaced by cell culture medium supplemented with YM155 or YM155 liposomal formulations at concentrations ranging from 0.8 to 100 nM, after which the cell culture were incubated for 24 h at 37°C. Control experiments included incubations with empty liposomes (i.e. without YM155) at equivalent TL concentrations in the range of 0.08–11 μM TL. After 24 h of incubation, medium was replaced with drug-free medium containing alamarBlue reagent (10 vol%), after which cells were incubated for an extra 3 h at 37°C. Fluorescence was quantified with a microplate reader (Mithras LB940) and used to calculate the relative percentage of living cells normalized against control cells that had not been treated with YM155. IC50 values were calculated by curve fitting using non-linear regression in Graph Pad Prism 6.0.

[2] = Pharmacokinetic pilot study, YM155 in blood/plasma after single i.v. administration; type: in vivo, mice; conditions: for half-life / Vd: 1 mg/kg
Procedure: (§1) Animal experiments were conducted in compliance with the national regulations and have been approved by the local ethical committee for animal experimentation. NMRI nu/nu female mice (25 g, Charles River, Massachusetts, USA) were housed in a temperature-controlled room (approximately 22°C) with 55 to 65% relative humidity, a photoperiod of 12/12 h with free access to water and pelleted rodent food. The mice were challenged with KCNR neuroblastoma (passage 1–2) derived from DAG102776 by serial xenotransplantation in both flanks. When the tumor growth reached the size of approximately 8 × 8 mm, mice were randomly divided in three groups that were injected intravenously with either free YM155 dissolved in HBS (1 mg/kg, n = 11), YM155 loaded anti-GD2-immunoliposomes (3 μmol TL/kg diluted in HBS, equivalent to 1 mg/kg YM155, n = 11), or an equivalent dose of YM155 loaded control liposomes (n = 11). At designated time points (i.e. 5 min, 9 min, 15 min, 30 min, 1 h, 4 h, 8 h, 24 h, 48 h and 72 h), blood samples (approximately 0.5 ml per sampling time point) were collected in tubes containing EDTA as anticoagulant and mice were sacrificed. Blood samples and excised tumors were stored at −80°C until analysis of their YM155 concentration by liquid chromatography-tandem mass spectrometry (LC-MS/MS) ([34]).
(§2) Pharmacokinetic analysis of the in-vivo data was performed using the Pk Solver 2.0 add-in template for Microsoft Excel, as described previously ([35]). Pharmacokinetic parameters were determined by non-compartmental analysis (NCA) using linear-logarithmic trapezoidal model fitting, or by compartmental analysis (CA) using 1-compartment model fitting.

neuroblastoma cell lines = conditions: most neuroblastoma cell lines; Table I, no reference given; cited from earlier work
[3] = cited from earlier work
[4] = Tumor accumulation of YM155 in subcutaneous KCNR tumor xenografts; type: in vivo, mice; conditions: single i.v. 1 mg/kg
Procedure: as §1, with “At designated time points (i.e. 5 min, 9 min, 15 min, 30 min, 1 h, 4 h, 8 h, 24 h, 48 h and 72 h), blood samples (approximately 0.5 ml per sampling time point) were collected in tubes containing EDTA as anticoagulant and mice were sacrificed. Blood samples and excised tumors were stored at −80°C until analysis of their YM155 concentration by liquid chromatography-tandem mass spectrometry (LC-MS/MS) ([34]).” left out
as §2

What does the source list for `COCCn1c2c([n+](Cc3cnccn3)c1C)C(=O)c1ccccc1C2=O` [YM155, Sepantronium bromide]?
LogP [1]: −3.7; Solubility in water [1]: At least 0,5 mg/ml; pKa [1]: 5.3; IC50 (KCNR cells): 27 nM; AUC(0-inf) ([2]; female, NMRI nu/nu, mouse, iv, single i.v. 1 mg/kg, NCA, blood/plasma): 136 ng·h/mL; half-life ([2]; female, NMRI nu/nu, mouse, plasma, iv, single i.v. 1 mg/kg YM155, female mice with KCNR xenografts, non-compartmental analysis, read-out: t1/2 (NCA) (converted)): 24 min; Vd ([2]; female, NMRI nu/nu, mouse, plasma, iv, single i.v. 1 mg/kg, NCA, read-out: Vss): 2.47 L/kg; Vd ([2]; female, NMRI nu/nu, mouse, plasma, iv, single i.v. 1 mg/kg, NCA, read-out: Vz): 4.65 L/kg; half-life ([2]; female, NMRI nu/nu, mouse, plasma, iv, single i.v. 1 mg/kg, compartmental analysis, 1-compartment model, read-out: CA t1/2 (converted)): 12 min; clearance ([2]; female, NMRI nu/nu, mouse, plasma, iv, single i.v. 1 mg/kg, NCA): 122 mL/min/kg; MRT inf ([2]; female, NMRI nu/nu, mouse, plasma, iv, single i.v. 1 mg/kg, NCA, read-out: MRT0-∞): 20.4 min; Time plasma levels were detectable post administration ([2]; single i.v. 1 mg/kg): about 8 h; IC50 (neuroblastoma cell lines): Low nM range for most neuroblastoma cell lines; Previously reported half-life [3]: ~ 1 h; Plasma half-life ([3]; mice and rats): 60 to 120 min; Time intratumor levels of YM155 could be detected post injection [4]: up to 24 h

From paper PMC5842274, “Anti-GD2 Immunoliposomes for Targeted Delivery of the Survivin Inhibitor Sepantronium Bromide (YM155) to Neuroblastoma Tumor Cells” (Pharmaceutical Research, 2018)
